Assays:
[1] = tested on: middle cerebral artery ischemia-reperfusion model; experiment: Cerebroprotective action in middle cerebral artery ischemia-reperfusion model; assay type: in vivo, rat
Protocol: CD(SD)IGS male rats (Japan Charles river Kabushiki kaisha, Hino farm, room No. 22, specific product) (8 rats per one group) having body weight 270 to 350 g were anesthetized by 2% isoflurane (mixed bas comprising of 70% N2O (laughter gas) and 30% O2) to immobilize, and then the rats were put on warming plate to keep the rectal and brain temperature 37 to 38° C. After that, to observe the stability in the examination, cannula which was made by polyethylene (PE-50, Becton Dickinson) was inserted and left in caudal artery of said animal, and this made blood drawing and blood pressure determining to monitor the biochemical parameter such as blood sugar level, hematocrit, CO2 concentration, oxygen partial pressure, pH, blood pressure and etc. In addition, cerebral blood flow in cortex was determined by laser doppler fluorometry (Neuroscience.inc: OMEGA FLOW (FLO-C1)), putting the detection site directly on cranium on the point left 4 mm from bregma. Left neck of such animal was incised, and from internal and external carotid fork of common carotid artery to upstream of internal carotid, nylon surgical thread (length 16 mm, diameter 0.2 to 0.3 mm, with silicon coating on its tip 3 mm) was passed and left, middle cerebral artery was obstructed for 2 hours. After that, the thread was removed to release the middle cerebral artery, and blood was reperfused for 21 hours. To each animals, 3.0 mg/kg of edaravone (control) and 5.58 mg/kg of TM-2002 were respectively administered twice by cannula which is left in caudal artery 5 minutes and 5 hours after middle cerebral artery occlusion. After said operation, the brain was removed from said animal, and after preparing 7 brain slices with 2 mm thickness, to TTC stain (0.8 g of 2,3,5-triphenyltetrazolium chloride (Sigma) dissolved in 40 ml of saline) were soaked at 37° C. for 15 minutes to stain, the area of infarction and fixed by 10% neutral formalin liquid to prepare specimen. Such specimens were created the image by CCD camera respectively, and analysed according to method of Swanson et al. (J Cereb Blood Flow Metab 10:290-293; 1994). […] Furthermore, function recovering was estimated before and after the operation by rotor rod test that estimates how much they can walk on rotating rotor.

SHR/NDmcr-cp rat = experiment: Renal protecting effect in SHR/NDmcr-cp rat; assay type: in vivo; details: 33 weeks aged, 20 weeks administration; TM-2002 50 mg/kg in diet, olmesartane 3 mg/kg oral
From the text: Renal protecting effect was observed using SHR/NDmcr-cp (Disease Model Cooperative Research Association) rat, which had been known their high blood pressure, hyperglycemia, hyperlipemia, obesity and hyperinsulinemia and renal function disorder while aging.
SHR/NDmcr-cp rat and Wistar Kyoto rat (Disease Model Cooperative Research Association) of 9 weeks aged were conformed for 3 weeks and measured their body weight and blood collection before administration. One group contain five rats (body weight 440 g±32 g). After division, excipient (negative control), positive control compound and test compound were administered 20 weeks. Carboxymethylcellulose (carboxymethyl cellulose Na/ Wako) solution as excipient and olmesartane, which is one of the angiotensin II receptor antagonist and has renal protective effect, as positive control compound were used to examine the effect of TM-2002 (test compound). The dosage of olmesartane was 3 mg per 1 kg of body weight and that of TM-2002 was 50 mg per 1 kg of body weight. Olmesartane was prepared by suspending or solving the designed amount in 1.0 ml of 0.5% carboxymethylcellulose solution or purified water, and TM-2002 was prepared by mixing the designed amount in 30 g of diet (for one day). Since the increase of body weight of test animals was remarkable, the amount of positive control compound and test compound was modified depending on the result of body weight measuring (every week). […] While administration period, body weight was measured every week, and blood collection, urine collection and blood pressure measuring were done every 2 weeks before 4 weeks aged and every 4 weeks after 5 weeks aged. Blood collection was carried out after warming to 38° C. by warming plate from caudal vein for 800 μl (heparin treatment: the amount of heparin was determined by ratio 15 μl to 1 ml of blood). […] The volume of daily urine was measured when urine was collected. The blood pressure was determined with by the tail-cuff method blood pressure measure (Softron). […]

Cc1ncc2c(c1O)C(c1c(C)nn(-c3ccccc3)c1O)OC2 (centres unmarked) [compound 68, 1-(5-hydroxy-3-methyl-1-phenyl-1H-pyrazol-4-yl)-6-methyl-1,3-dihydro-furo[3,4-c]pyridin-7-ol]
cerebral infarction nest ([1]; 2 hours occlusion, 21 hours reperfusion, edaravone 3.0 mg/kg, TM-2002 5.58 mg/kg, twice (5 minutes and 5 hours after occlusion), vs excipient): significantly reduced | improvement for nervous condition and recovering the function ([1]; compared to excipient single administration): remarkably shown | blood pressure (SHR/NDmcr-cp rat): without blood pressure lowering | renal function / renal protective effect (SHR/NDmcr-cp rat): excellent renal protective effect | urinary protein (SHR/NDmcr-cp rat): urinary protein is suppressed remarkably

— patent US7645882B2, “Inhibitor of protein modification products formation” (priority 2003, dated 2010)
